Experimental findings from patent publication US20160280688A1, “SUBSTITUTED PHENYLALANINE DERIVATIVES” (BAYER PHARMA AKTIENGESELLSCHAFT, priority 2013, published 2016) are described below.

Structures are written as SMILES. Where a name gives a salt, the structure may show the parent alone.

Common to all, as to type: biochemical
For one assay, the target named is T1, human plasmin (Homo sapiens, UniProt P00747).
T1 construct: purchased Kordia
As to the kind of experiment: Measurement of plasmin inhibition (fluorogenic peptide substrate MeOSuc-Ala-Phe-Lys-AMC). The conditions noted are these: plasmin from Kordia, 15 min preincubation, 30 min at 22° C., fluorescence. Here is the method: The plasmin inhibition of the inventive substances is determined using a biochemical test system which utilizes the reaction of a peptidic plasmin substrate to determine the enzymatic activity of human plasmin. Here, plasmin cleaves from the peptic plasmin substrate the C-terminal aminomethylcoumarin (AMC), the fluorescence of which is measured. The determinations are carried out in microtitre plates.
(§1) Test substances are dissolved in dimethyl sulphoxide and serially diluted in dimethyl sulphoxide (3000 μM to 0.0078 μM; resulting final concentrations in the test: 50 μM to 0.00013 μM). In each case 1 μl of the diluted substance solutions are placed into the wells of white microtitre plates from Greiner (384 wells). Subsequently, the following are added successively: 20 μl of assay buffer (50 mmol/l Tris buffer pH 7.4; 100 mmol/l sodium chloride; 5 mmol/l calcium chloride; 0.1% bovine serum albumin) and 20 μl of plasmin from Kordia (0.3 μg/ml in assay buffer). After 15 min of incubation, the enzyme reaction is started by addition of 20 μl of the plasmin substrate MeOSuc-Ala-Phe-Lys-AMC dissolved in assay buffer (150 μM in assay buffer) from Bachem, the mixture is incubated at room temperature (22° C.) for 30 min and fluorescence is then measured (excitation: 360 nm, emission: 460 nm). The measured emissions of the test batches with test substance are compared to those of control batches without test substance (only dimethyl sulphoxide instead of test substance in dimethyl sulphoxide), and ICso values are calculated from the concentration/activity relationships.

The next assay relates to human and animal plasma. The experiment in a line: Determination of the anticoagulatory activity: activated partial thromboplastin time (aPTT) in plasma. The conditions noted are these: in vitro in plasma, C.K. Prest kit, 3 min at 37° C. On the procedure:
The anticoagulatory activity of the test substances is determined in vitro in human and animal plasma (for example mouse, rat, rabbit, pig and dog plasma). To this end, blood is drawn off in a mixing ratio of sodium citrate/blood of 1:9 using a 0.11 molar sodium citrate solution as receiver. Immediately after the blood has been drawn off, it is mixed thoroughly and centrifuged at about 4000 g for 15 minutes. The supernatant is pipetted off.
The activated partial thromboplastin time (aPTT) is determined in the presence of varying concentrations of test substance or the corresponding solvent using a commercial test kit (C.K. Prest from Diagnostica Stago). The test compounds are incubated with the plasma and the PTT reagent (cephalin, kaolin) at 37° C. for 3 minutes. Coagulation is then started by addition of a 25 mM aqueous calcium chloride solution, and the time when coagulation occurs is determined. The concentration of test substance which brings about a 1.5-fold extension of the aPTT is determined Activity data from this test are listed in Table B below: […]

The target in another assay is T2, human factor XIa (Homo sapiens, UniProt P03951).
T2 construct: purchased Kordia
The experiment in a line: Measurement of FXIa inhibition (fluorogenic peptide substrate Boc-Glu(OBzl)-Ala-Arg-AMC). The conditions noted are these: factor XIa from Kordia, 15 min preincubation, 30 min at 22° C., fluorescence. On the procedure: To determine the factor XIa inhibition of the substances according to the invention, a biochemical test system is used which utilizes the reaction of a peptidic factor XIa substrate to determine the enzymatic activity of human factor XIa. Here, factor XIa cleaves from the peptic factor XIa substrate the C-terminal aminomethylcoumarin (AMC), the fluorescence of which is measured. The determinations are carried out in microtitre plates.
as §1, with “factor XIa” for “plasmin”, “(0.45 nM” for “(0.3 μg/ml”, “Boc-Glu(OBzl)-Ala-Arg-AMC” for “MeOSuc-Ala-Phe-Lys-AMC”, “(10” for “(150”, “IC50” for “ICso”

T2 sequence (P03951 388-625 limits assumed): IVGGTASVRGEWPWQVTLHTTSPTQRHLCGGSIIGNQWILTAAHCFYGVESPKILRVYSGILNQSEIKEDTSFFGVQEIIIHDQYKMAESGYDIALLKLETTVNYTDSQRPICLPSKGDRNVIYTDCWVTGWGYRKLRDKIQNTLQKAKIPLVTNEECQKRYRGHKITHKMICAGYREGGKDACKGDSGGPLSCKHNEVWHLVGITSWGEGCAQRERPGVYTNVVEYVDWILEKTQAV
T2 sequence (P03951 19-387 partner limits assumed): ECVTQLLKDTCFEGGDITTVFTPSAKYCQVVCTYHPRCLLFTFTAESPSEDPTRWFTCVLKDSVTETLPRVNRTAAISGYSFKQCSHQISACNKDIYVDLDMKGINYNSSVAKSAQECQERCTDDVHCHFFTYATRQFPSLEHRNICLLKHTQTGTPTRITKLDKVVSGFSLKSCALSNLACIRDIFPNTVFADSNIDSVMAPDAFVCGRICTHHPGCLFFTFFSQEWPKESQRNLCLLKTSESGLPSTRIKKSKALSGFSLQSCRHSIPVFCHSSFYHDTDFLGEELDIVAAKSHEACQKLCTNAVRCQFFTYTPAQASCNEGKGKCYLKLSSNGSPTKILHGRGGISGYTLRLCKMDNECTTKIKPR
T1 sequence (P00747 581-810 limits assumed): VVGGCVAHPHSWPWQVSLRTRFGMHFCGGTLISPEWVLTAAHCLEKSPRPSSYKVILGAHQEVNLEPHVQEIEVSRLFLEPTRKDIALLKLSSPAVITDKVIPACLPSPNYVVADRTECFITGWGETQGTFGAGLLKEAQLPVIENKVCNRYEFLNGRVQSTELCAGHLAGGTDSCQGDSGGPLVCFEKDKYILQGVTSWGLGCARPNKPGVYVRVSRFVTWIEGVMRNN
T1 sequence (P00747 97-580 partner limits assumed): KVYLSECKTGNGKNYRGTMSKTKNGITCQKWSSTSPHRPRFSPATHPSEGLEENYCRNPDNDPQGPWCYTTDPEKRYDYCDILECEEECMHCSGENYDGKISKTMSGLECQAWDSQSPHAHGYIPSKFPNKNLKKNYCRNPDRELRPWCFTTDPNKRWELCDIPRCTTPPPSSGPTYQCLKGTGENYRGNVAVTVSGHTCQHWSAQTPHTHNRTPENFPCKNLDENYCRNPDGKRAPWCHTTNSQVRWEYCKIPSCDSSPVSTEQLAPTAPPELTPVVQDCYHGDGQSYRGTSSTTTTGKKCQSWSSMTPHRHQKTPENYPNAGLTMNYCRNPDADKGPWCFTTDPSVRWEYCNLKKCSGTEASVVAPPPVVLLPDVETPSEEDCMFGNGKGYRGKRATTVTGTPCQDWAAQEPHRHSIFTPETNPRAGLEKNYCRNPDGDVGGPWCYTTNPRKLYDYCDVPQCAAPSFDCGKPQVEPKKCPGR

Regarding `Cc1cc2[nH]c(C(C)C)nc2cc1-c1ccc(C[C@H](NC(=O)[C@H]2CC[C@H](CN)CC2)C(=O)Nc2ccc3nc(C(F)(F)C(F)(F)F)[nH]c3c2)cc1` [Example 25, N-alpha-{[trans-4-(Aminomethyl)cyclohexyl]carbonyl}-4-(2-isopropyl-6-methyl-1H-benzimidazol-5-yl)-N-[2-(pentafluoroethyl)-1H-benzimidazol-6-yl]-L-phenylalaninamide hydrochloride], the half-maximal inhibitory concentration (IC50) on human plasmin was 1.7 nM; against human factor XIa, 13 nM. The “aPTT (concentration of test substance which brings about a 1.5-fold extension of the aPTT)” value with human and animal plasma stood at 0.96 µmol/L.

`Cc1c(-c2ccc(C[C@H](NC(=O)[C@H]3CC[C@H](CN)CC3)C(=O)Nc3ccc4[nH]c(=O)[nH]c4c3)cc2)cc2nc(C3CCC3)[nH]c2c1F` [Example 27, N-alpha-{[trans-4-(Aminomethyl)cyclohexyl]carbonyl}-4-(2-cyclobutyl-7-fluoro-6-methyl-1H-benzimidazol-5-yl)-N-(2-oxo-2,3-dihydro-1H-benzimidazol-5-yl)-L-phenylalaninamide]: the half-maximal inhibitory concentration (IC50) on human plasmin was found to be 0.45 nM; against human factor XIa it was 0.9 nM. Also, in the assay on human and animal plasma, the “aPTT (concentration of test substance which brings about a 1.5-fold extension of the aPTT)” value was 0.16 µmol/L.

For `Cc1cc2nc[nH]c2cc1-c1ccc(C[C@H](NC(=O)[C@H]2CC[C@H](CN)CC2)C(=O)Nc2ccc3c(=O)[nH][nH]c3c2)cc1` [Example 30, N-alpha-{[trans-4-(Aminomethyl)cyclohexyl]carbonyl}-4-(5-methyl-1H-benzimidazol-6-yl)-N-(3-oxo-2,3-dihydro-1H-indazol-6-yl)-L-phenylalaninamide hydrochloride], the IC50 was 5.9 nM on human plasmin and 1.7 nM against human factor XIa. Besides, the “aPTT (concentration of test substance which brings about a 1.5-fold extension of the aPTT)” value with human and animal plasma (hydrochloride) is 0.07 µmol/L.

On to `CC(C)c1nc2cc(C(F)(F)F)c(-c3ccc(C[C@H](NC(=O)[C@H]4CC[C@H](CN)CC4)C(=O)Nc4ccc5[nH]c(=O)[nH]c5c4)cc3)cc2[nH]1` [Example 31, N-alpha-{[trans-4-(Aminomethyl)cyclohexyl]carbonyl}-4-[2-isopropyl-5-(trifluoromethyl)-1H-benzimidazol-6-yl]-N-(2-oxo-2,3-dihydro-1H-benzimidazol-5-yl)-L-phenylalaninamide hydrochloride], for which the IC50 against human plasmin came to 2.1 nM; on human factor XIa, 3.1 nM. The “aPTT (concentration of test substance which brings about a 1.5-fold extension of the aPTT)” value with human and animal plasma came to 0.07 µmol/L.

As to `CC(C)n1[nH]c2cc(-c3ccc(C[C@H](NC(=O)[C@H]4CC[C@H](CN)CC4)C(=O)Nc4ccc5cn[nH]c5c4)cc3)ccc2c1=O` [Example 32, N-alpha-{[trans-4-(Aminomethyl)cyclohexyl]carbonyl}-N-1H-indazol-6-yl-4-(2-isopropyl-3-oxo-2,3-dihydro-1H-indazol-6-yl)-L-phenylalaninamide hydrochloride], the results for the concentration for half-maximal inhibition (IC50) against human plasmin and against human factor XIa were 8.7 nM and 28 nM, respectively. Moreover, the “aPTT (concentration of test substance which brings about a 1.5-fold extension of the aPTT)” value in the assay on human and animal plasma is 0.43 µmol/L.

Regarding `CC(C)n1[nH]c2cc(-c3ccc(C[C@H](NC(=O)[C@H]4CC[C@H](CN)CC4)C(=O)Nc4ccc5[nH]c(=O)[nH]c5c4)cc3)ccc2c1=O` [Example 33, N-alpha-{[trans-4-(Aminomethyl)cyclohexyl]carbonyl}-4-(2-isopropyl-3-oxo-2,3-dihydro-1H-indazol-6-yl)-N-(2-oxo-2,3-dihydro-1H-benzimidazol-5-yl)-L-phenylalaninamide hydrochloride], the IC50 worked out at 5.9 nM against human plasmin and 17 nM on human factor XIa. In the assay on human and animal plasma, the “aPTT (concentration of test substance which brings about a 1.5-fold extension of the aPTT)” value was 0.1 µmol/L.

Regarding `Cc1cc2c(=O)n(C(C)C)[nH]c2cc1-c1ccc(C[C@H](NC(=O)[C@H]2CC[C@H](CN)CC2)C(=O)Nc2ccc3[nH]c(=O)[nH]c3c2)cc1` [Example 34, N-alpha-{[trans-4-(Aminomethyl)cyclohexyl]carbonyl}-4-(2-isopropyl-5-methyl-3-oxo-2,3-dihydro-1H-indazol-6-yl)-N-(2-oxo-2,3-dihydro-1H-benzimidazol-5-yl)-L-phenylalaninamide hydrochloride], the results for the IC50 at human plasmin and against human factor XIa were 1.7 nM and 1.5 nM, respectively. For the same compound, the “aPTT (concentration of test substance which brings about a 1.5-fold extension of the aPTT)” value with human and animal plasma stood at 0.11 µmol/L.

With `CC(C)c1nc2c(F)c(F)c(-c3ccc(C[C@H](NC(=O)[C@H]4CC[C@H](CN)CC4)C(=O)Nc4ccc5[nH]c(=O)[nH]c5c4)cc3)cc2[nH]1` [Example 35, N-alpha-{[trans-4-(Aminomethyl)cyclohexyl]carbonyl}-4-(4,5-difluoro-2-isopropyl-1H-benzimidazol-6-yl)-N-(2-oxo-2,3-dihydro-1H-benzimidazol-5-yl)-L-phenylalaninamide hydrochloride], the IC50 at human plasmin is 1.5 nM; on human factor XIa, 6.9 nM. Besides, the “aPTT (concentration of test substance which brings about a 1.5-fold extension of the aPTT)” value in the assay on human and animal plasma came to 0.54 µmol/L.

For `Cc1cc2nc(C3CC3)nn2cc1-c1ccc(C[C@H](NC(=O)[C@H]2CC[C@H](CN)CC2)C(=O)Nc2ccc3[nH]c(=O)[nH]c3c2)cc1` [Example 36, N-alpha-{[trans-4-(Aminomethyl)cyclohexyl]carbonyl}-4-(2-cyclopropyl-7-methyl[1,2,4]triazolo[1,5-a]pyridin-6-yl)-N-(2-oxo-2,3-dihydro-1H-benzimidazol-5-yl)-L-phenylalaninamide hydrochloride], the IC50 against human plasmin is 1.2 nM; on human factor XIa, 3.6 nM. For the same compound, in the assay on human and animal plasma, the “aPTT (concentration of test substance which brings about a 1.5-fold extension of the aPTT)” value stood at 0.08 µmol/L.

On to `Cc1cc2nc(C(C)C)[nH]c2nc1-c1ccc(C[C@H](NC(=O)[C@H]2CC[C@H](CN)CC2)C(=O)Nc2ccc3[nH]c(=O)[nH]c3c2)cc1` [Example 37, N-alpha-{[trans-4-(Aminomethyl)cyclohexyl]carbonyl}-4-(2-isopropyl-6-methyl-3H-imidazo[4,5-b]pyridin-5-yl)-N-(2-oxo-2,3-dihydro-1H-benzimidazol-5-yl)-L-phenylalaninamide hydrochloride], for which the concentration for half-maximal inhibition (IC50) at human plasmin was 0.5 nM; against human factor XIa, 4.9 nM. In addition, the “aPTT (concentration of test substance which brings about a 1.5-fold extension of the aPTT)” value in the assay on human and animal plasma stood at 0.06 µmol/L.

Usually IC50 stands for the point on the concentration scale where inhibition reaches its midpoint. Lower therefore signals greater potency.
